The nature of the data set: method code SF-AS, from DOI: 10.1002/chin.198834177. As to conditions: pH 5.6.

The structures appear in SMILES notation.

For orientation: logD means the decadic logarithm of the distribution of all forms, ionised or not, between an organic phase and buffer at a given pH. The low end stands for a more hydrophilic compound, the high end for a more lipophilic compound. In turn, `CC(C(N)=O)n1nnc2ccccc21` (stereo not given) had a logD of 0.35.

For `c1ccc2c(c1)nnn2C1CCCCC1`, the logD was 3.11.

As to `CCOC(=O)CC(C)n1nc2ccccc2n1` (stereo not given), the logD is 2.7.

The compound `CC(CCC(N)=O)n1nc2ccccc2n1` (stereo not given) displayed a logD of 1.35.

Compound `CC(C)(C(N)=O)n1nc2ccccc2n1` showed a logD of 1.16.

On to `CCOC(=O)CCC(C)n1nc2ccccc2n1` (stereo not given), for which the logD came to 3.05.

Take `CCOC(=O)C(C)n1nc2ccccc2n1` (stereo not given): the logD turned out to be 2.38.

As for `CCOC(=O)C(CC)n1nnc2ccccc21` (stereo not given), the logD was determined as 2.34.

Turning to `CCOCC(=O)CCC(C)n1nnc2ccccc21` (stereo not given), the logD is 2.64.

On to `CC(CC(N)=O)n1nc2ccccc2n1` (stereo not given), for which the logD was 1.

In turn, `CCCC(C(=O)OCC)n1nnc2ccccc21` (stereo not given) had a logD of 2.82.

The compound `CC(CCC(N)=O)n1nnc2ccccc21` (stereo not given) returned a logD of 1.15.

The compound `CCOC(=O)C(C)n1nnc2ccccc21` (stereo not given) displayed a logD of 1.87.

Regarding `CCCCC(C(N)=O)n1nnc2ccccc21` (stereo not given), the logD came to 1.88.

Regarding `CCCCC(C(=O)OCC)n1nnc2ccccc21` (stereo not given), the logD worked out at 3.32.

In turn, `CCOC(=O)C(C)(C)n1nnc2ccccc21` had a logD of 2.6.

The compound `CCCC(C(=O)OCC)n1nc2ccccc2n1` (stereo not given) showed a logD of 3.38.

In turn, `CCCC(C(N)=O)n1nc2ccccc2n1` (stereo not given) gave a logD of 1.75.

Turning to `CC(C(N)=O)n1nc2ccccc2n1` (stereo not given), the logD is 0.86.

Take `CC(CC(N)=O)n1nnc2ccccc21` (stereo not given): the logD worked out at 0.75.

In the case of `CCC(C(N)=O)n1nnc2ccccc21` (stereo not given), the logD came to 0.88.

As to `CCOC(=O)CC(C)n1nnc2ccccc21` (stereo not given), the pH-dependent lipophilicity (logD) was found to be 2.27.

Compound `CCCCC(C(N)=O)n1nc2ccccc2n1` (stereo not given) had a logD of 2.28.

In turn, `CC(C)(C(N)=O)n1nnc2ccccc21` showed a logD of 0.76.

Compound `CCCC(C(N)=O)n1nnc2ccccc21` (stereo not given) had a logD of 1.38.

For `CCOC(=O)C(C)(C)n1nc2ccccc2n1`, the logD was 2.98.

`CCOC(=O)C(CC)n1nc2ccccc2n1` (stereo not given) yielded a logD of 2.88.

For `c1ccc2nn(C3CCCCC3)nc2c1`, the logD amounted to 3.63.

As for `CCCCC(C(=O)OCC)n1nc2ccccc2n1` (stereo not given), the logD is 3.88.

The compound `CCC(C(N)=O)n1nc2ccccc2n1` (stereo not given) yielded a logD of 1.25.
